Data as given in article PMC12503906, “Novel Pyrazolo [1,5‐a]−1,3,5‐Triazine Derivatives as CDK7 Inhibitors: Synthesis and Biological Insights in Pancreatic Ductal Adenocarcinoma Models” (Chemmedchem, 2025).
Where two headings read alike, the source gives them in different places.

Legend:
Assay type in all cases: cell-based
[1] = test system: SUIT 2.28; experiment: SRB chemosensitivity assay, SUIT 2.28 cells; conditions: read-out: IC50 SUIT 2.28
Description: (§1) Three lines of immortalized PDAC cells were selected as representative phenotypes: mesenchymal (PATU‐T), quasimesenchymal (PANC‐1), and an epithelial clone of SUIT 2 cells (SUIT 2.28). Cells were cultured in noncoated T‐75 and T‐25 flasks under adherent conditions, using 1× DMEM (Gibco, 41,966,029) for PATU‐T and RPMI (Gibco, 21,875,034) for SUIT 2.28 and PANC‐1, both supplemented with 10% NBCS and 1% P/S. Additional employed models were the PDAC3 cells, a primary cell culture, the PSCs, which were immortalized healthy pancreatic cells, and the PATU‐T‐GR, which was a gemcitabine resistant model of PATU‐T. PDAC3 and PSCs were cultivated using complete RPMI medium, while PATU‐T‐GR required complete DMEM medium. For seeding, cells were detached with Trypsin‐EDTA (0.05%) (GibcoTM, 25,300–096) and were consequently counted using the Automated Cell Counter (Luna‐II, Westburg). Cells were then plated on 96‐ or 6‐well plates depending on the planned experiment.
(§2) The Sulforhodamine B (SRB) chemosensitivity assay was used to measure cytotoxicity and cell proliferation post drug treatment. At day 0, 3–6 × 10^3 cells were seeded in a 96‐well plate, depending on the cell line. At day 1, cells were attached and ready to be treated. For the calculation of the IC50, drug dilutions for the compounds 1b, 1c, 1d, 1e, 1g, 1hr, 1i, 1j, and LDC4297 (MedChemExpress, HY‐12,653) were prepared in dilution trays and eight different concentrations were included. These were added in triplicates to the cells, which were then incubated for […] at 37 °C in 5% CO2. During day 1, the control plate was fixed with 50% Trichloroacetic acid (TCA), as intended to be the baseline plate used for the normalization of the data. 72 h post‐treatment, the cells were fixed with TCA, and placed at 4 °C for about 2 h. The plates were then washed with distillated water and left to dry under the hood with ventilation. Subsequently, plates were stained with 0.4% SRB for 15 min and washed with 1% acetic acid to remove excess stain. Once dried again, the protein‐bound SRB was dissolved in 10 mM TRIS, and the plates were placed on a shaker for 10 min per plate. Lastly, the absorbance was measured at 492 nm with a spectrophotometer (Synergy HT, BioTek). The absorbance data obtained were normalized to the day 1 control, and the percentage of cell growth in relation to the control was calculated using the following formula. (1) %Cell growth=Mean OD treatment−Mean OD day0/Mean OD control−Mean OD day0×100
The percentage of proliferation and their respective standard deviations were used to perform statistical analysis in GraphPad Prism software v 10 (GraphPad Software, San Diego, CA). Data were normalized to the day 0 control and to their own untreated 72 h control. These were transformed into logarithmic data, and log(inhibitor) versus response analysis was performed for obtaining the IC50 values per cell lines. Each experiment was conducted in triplicates.

[2] = test system: PSC; experiment: SRB chemosensitivity assay, pancreatic stellate cells (PSC); conditions: Fibroblast, read-out: IC50 PSC
Description: as §1
as §2, with “The plates were then washed with distillated water and left to dry under the hood with ventilation. Subsequently, plates were stained with 0.4% SRB for 15 min and washed with 1% acetic acid to remove excess stain. Once dried again, the protein‐bound SRB was dissolved in 10 mM TRIS, and the plates were placed on a shaker for 10 min per plate.” left out, “(1) %Cell growth=Mean OD treatment−Mean OD day0/Mean OD control−Mean OD day0×100” left out

[3] = test system: PATU‐T; experiment: Annexin V apoptosis assay, PATU‐T; conditions: 1 × IC50
Description: In order to investigate the apoptotic properties of the compounds 1b and 1g, the Annexin V apoptosis assay was performed. Annexins are calcium‐dependent phospholipid binding proteins, which are able to bind to phosphatidylserine (PS). The externalization of PS residues on the outer membrane of apoptotic cells can be detected by Annexin V.
For this assay, cells were seeded in a 96‐well plate at a concentration of 13.5 × 10^3 and 4.5 × 10^3 /well respectively for the 24 and 72 h experiments. The next day cells were treated with compounds 1b and 1g at 1 × IC50 and 4 × IC50 concentrations. The apoptosis assay was performed 24 and 72 h post‐treatment following the BD Pharmingen FITC Annexin V Apoptosis Detection Kit I (BD Biosciences, 556,547). The supernatant was aspirated, and cells were washed with phosphate‐buffered saline (PBS). Cells were consequently treated with binding buffer BBA + Annexin V (1:100) and were incubated in the dark at RT for 10 min. The supernatant was removed, and the cells were washed with BBA (1:10). Cells were then incubated with BBA + PI (1:100) and were immediately read with the spectrophotometer at ex. 485/ em. 535. Two different programs were used to read the Annexin V and the PI absorbance. Lastly, 100 µL of PBS were added to each well before being fixed with TCA. This was followed by the SRB assay to standardize fluorescence data according to cell count. Data were exported into GraphPad Prism 10 for statistical analysis.

| SMILES | IC50 ([1]; SRB, 72 h of treatment, average ± SEM, triplicate) [nM] | IC50 ([2]; SRB, nontumorous immortalized pancreatic fibroblasts, average ± SEM, triplicate) [nM] | apoptotic index ([3]; 24 h) | apoptotic index ([3]; 72 h) | IC50 ([1]; 72 h) [nM] | IC50 [2] [nM] |
| --- | --- | --- | --- | --- | --- | --- |
| Nc1ncnc2cc(-c3c[nH]c4ccc(Br)cc34)nn12 [Compound 1b, 7‐(5‐Bromo‐1H‐indol‐3‐yl)pyrazolo[1,5‐a][1,3,5]triazin‐4‐amine] | 600 ± 100 | 6600 ± 700 | did not show a significant apoptotic index | significant increase in apoptotic index |  |  |
| Cn1cc(-c2cc3ncnc(N)n3n2)c2cc(Br)ccc21 [Compound 1g, 7‐(5‐Bromo‐1‐methyl‐1H‐indol‐3‐yl)pyrazolo[1,5‐a][1,3,5]triazin‐4‐amine] |  |  | significantly increased apoptosis | not significant compared to control | 200 ± 100 | 5300 ± 1100 |
